{"source": "PubChem BioAssay (NCI)", "experiment_in_all_cases": "NCI-60 cell line screen, 48 h", "key": {"RPMI-8226 leukemia": {"test_system": "RPMI-8226 leukemia"}, "CAKI-1 renal": {"test_system": "CAKI-1 renal"}, "EKVX NSCLC": {"test_system": "EKVX NSCLC"}, "NCI-H460 lung": {"test_system": "NCI-H460 lung"}, "MALME-3M melanoma": {"test_system": "MALME-3M melanoma"}, "HL-60(TB) leukemia": {"test_system": "HL-60(TB) leukemia"}, "HCT-116 colon": {"test_system": "HCT-116 colon"}, "SW-620 colon": {"test_system": "SW-620 colon"}, "SR leukemia": {"test_system": "SR leukemia"}, "IGROV1 ovarian": {"test_system": "IGROV1 ovarian"}, "SK-OV-3 ovarian": {"test_system": "SK-OV-3 ovarian"}, "NCI-H522 lung": {"test_system": "NCI-H522 lung"}, "HCT-15 colon": {"test_system": "HCT-15 colon"}, "CCRF-CEM leukemia": {"test_system": "CCRF-CEM leukemia"}, "DU-145 prostate": {"test_system": "DU-145 prostate"}, "UACC-62 melanoma": {"test_system": "UACC-62 melanoma"}, "COLO 205 colon": {"test_system": "COLO 205 colon"}, "NCI-H23 lung": {"test_system": "NCI-H23 lung"}, "SNB-19 CNS": {"test_system": "SNB-19 CNS"}, "SK-MEL-28 melanoma": {"test_system": "SK-MEL-28 melanoma"}, "KM12 colon": {"test_system": "KM12 colon"}, "M14 melanoma": {"test_system": "M14 melanoma"}, "OVCAR-4 ovarian": {"test_system": "OVCAR-4 ovarian"}, "MOLT-4 leukemia": {"test_system": "MOLT-4 leukemia"}, "A498 renal": {"test_system": "A498 renal"}, "ACHN renal": {"test_system": "ACHN renal"}, "TK-10 renal": {"test_system": "TK-10 renal"}, "MDA-MB-435": {"test_system": "MDA-MB-435"}, "U251 CNS": {"test_system": "U251 CNS"}, "SF-268 CNS": {"test_system": "SF-268 CNS"}, "T-47D breast": {"test_system": "T-47D breast"}, "MCF7 breast": {"test_system": "MCF7 breast"}, "MDA-MB-231 breast": {"test_system": "MDA-MB-231 breast"}, "SK-MEL-5 melanoma": {"test_system": "SK-MEL-5 melanoma"}, "HOP-62 NSCLC": {"test_system": "HOP-62 NSCLC"}, "HS 578T breast": {"test_system": "HS 578T breast"}, "NCI-H226 lung": {"test_system": "NCI-H226 lung"}, "K-562 leukemia": {"test_system": "K-562 leukemia"}, "OVCAR-3 ovarian": {"test_system": "OVCAR-3 ovarian"}, "NCI/ADR-RES ovarian": {"test_system": "NCI/ADR-RES ovarian"}, "786-0 renal": {"test_system": "786-0 renal"}, "UACC-257 melanoma": {"test_system": "UACC-257 melanoma"}, "OVCAR-8 ovarian": {"test_system": "OVCAR-8 ovarian"}, "A549 NSCLC": {"test_system": "A549 NSCLC"}, "SF-295 CNS": {"test_system": "SF-295 CNS"}, "HOP-92 NSCLC": {"test_system": "HOP-92 NSCLC"}, "HCC-2998 colon": {"test_system": "HCC-2998 colon"}, "OVCAR-5 ovarian": {"test_system": "OVCAR-5 ovarian"}, "LOX IMVI melanoma": {"test_system": "LOX IMVI melanoma"}, "SNB-75 CNS": {"test_system": "SNB-75 CNS"}, "SN12C renal": {"test_system": "SN12C renal"}, "SF-539 CNS": {"test_system": "SF-539 CNS"}, "MDA-N": {"test_system": "MDA-N"}, "RXF 393 renal": {"test_system": "RXF 393 renal"}, "HT29 colon": {"test_system": "HT29 colon"}}, "note": "Where “and” joins values, the source holds several entries; their conditions need not be identical. Identical values can stand only once.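 Test compounds were applied to cells in 96-well plates for 48 hours at 5 doses. GI50: concentration for 50% inhibition of growth. The concentration for full growth arrest is given as TGI.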"}
{"smiles": "C[C@H]1CC(=O)[C@@]2(O)C#C/C=C\\C#C[C@@H]3Nc4c(cc(O)c5c4C(=O)c4ccccc4C5=O)[C@]24O[C@]314", "values": [{"measurement": "GI50", "setting": "RPMI-8226 leukemia", "value": 3.13, "unit": "nM"}, {"measurement": "TGI", "setting": "RPMI-8226 leukemia", "value": "249 nM and 154 nM"}, {"measurement": "GI50", "setting": "CAKI-1 renal", "value": 2.5, "unit": "nM"}, {"measurement": "TGI", "setting": "CAKI-1 renal", "value": "59.7 nM and 51.2 nM"}, {"measurement": "GI50", "setting": "EKVX NSCLC", "value": 292, "unit": "nM"}, {"measurement": "TGI", "setting": "EKVX NSCLC", "value": "885 nM and 1400 nM"}, {"measurement": "GI50", "setting": "NCI-H460 lung", "value": 2.5, "unit": "nM"}, {"measurement": "TGI", "setting": "MALME-3M melanoma", "value": 518, "unit": "nM"}, {"measurement": "GI50", "setting": "HL-60(TB) leukemia", "value": 2.5, "unit": "nM"}, {"measurement": "TGI", "setting": "HL-60(TB) leukemia", "value": "5.52 nM and 5.2 nM"}, {"measurement": "GI50", "setting": "HCT-116 colon", "value": 2.5, "unit": "nM"}, {"measurement": "TGI", "setting": "HCT-116 colon", "value": "178 nM and 83.6 nM"}, {"measurement": "GI50", "setting": "SW-620 colon", "value": 5.9, "unit": "nM"}, {"measurement": "TGI", "setting": "SW-620 colon", "value": "306 nM and 337 nM"}, {"measurement": "TGI", "setting": "SR leukemia", "value": 42.6, "unit": "nM"}, {"measurement": "GI50", "setting": "IGROV1 ovarian", "value": 2.5, "unit": "nM"}, {"measurement": "TGI", "setting": "IGROV1 ovarian", "value": "452 nM and 700 nM"}, {"measurement": "TGI", "setting": "SK-OV-3 ovarian", "value": 95.4, "unit": "nM"}, {"measurement": "GI50", "setting": "NCI-H522 lung", "value": 32, "unit": "nM"}, {"measurement": "TGI", "setting": "NCI-H522 lung", "value": "293 nM and 384 nM"}, {"measurement": "GI50", "setting": "HCT-15 colon", "value": 7.22, "unit": "nM"}, {"measurement": "TGI", "setting": "HCT-15 colon", "value": "836 nM and 148 nM"}, {"measurement": "GI50", "setting": "CCRF-CEM leukemia", "value": 2.5, "unit": "nM"}, {"measurement": "GI50", "setting": "DU-145 prostate", "value": 2.5, "unit": "nM"}, {"measurement": "TGI", "setting": "UACC-62 melanoma", "value": 133, "unit": "nM"}, {"measurement": "TGI", "setting": "COLO 205 colon", "value": 342, "unit": "nM"}, {"measurement": "GI50", "setting": "NCI-H23 lung", "value": 3.59, "unit": "nM"}, {"measurement": "TGI", "setting": "NCI-H23 lung", "value": "59.2 nM and 101 nM"}, {"measurement": "TGI", "setting": "SNB-19 CNS", "value": 172, "unit": "nM"}, {"measurement": "GI50", "setting": "SK-MEL-28 melanoma", "value": 40.9, "unit": "nM"}, {"measurement": "TGI", "setting": "SK-MEL-28 melanoma", "value": "241 nM and 729 nM"}, {"measurement": "GI50", "setting": "KM12 colon", "value": 128, "unit": "nM"}, {"measurement": "TGI", "setting": "KM12 colon", "value": "226 nM and 480 nM"}, {"measurement": "GI50", "setting": "M14 melanoma", "value": 2.5, "unit": "nM"}, {"measurement": "TGI", "setting": "M14 melanoma", "value": "64.5 nM and 37.1 nM"}, {"measurement": "GI50", "setting": "OVCAR-4 ovarian", "value": 351, "unit": "nM"}, {"measurement": "TGI", "setting": "OVCAR-4 ovarian", "value": "648 nM and 1920 nM"}, {"measurement": "GI50", "setting": "MOLT-4 leukemia", "value": 2.5, "unit": "nM"}, {"measurement": "TGI", "setting": "MOLT-4 leukemia", "value": 2.78, "unit": "nM"}, {"measurement": "TGI", "setting": "A498 renal", "value": 217, "unit": "nM"}, {"measurement": "TGI", "setting": "ACHN renal", "value": 25.2, "unit": "nM"}, {"measurement": "GI50", "setting": "TK-10 renal", "value": 492, "unit": "nM"}, {"measurement": "GI50", "setting": "MDA-MB-435", "value": 19.6, "unit": "nM"}, {"measurement": "TGI", "setting": "MDA-MB-435", "value": "219 nM and 262 nM"}, {"measurement": "TGI", "setting": "U251 CNS", "value": 453, "unit": "nM"}, {"measurement": "GI50", "setting": "SF-268 CNS", "value": 5.99, "unit": "nM"}, {"measurement": "TGI", "setting": "SF-268 CNS", "value": "89.7 nM and 543 nM"}, {"measurement": "TGI", "setting": "T-47D breast", "value": 612, "unit": "nM"}, {"measurement": "GI50", "setting": "MCF7 breast", "value": 2.5, "unit": "nM"}, {"measurement": "TGI", "setting": "MCF7 breast", "value": "247 nM and 895 nM"}, {"measurement": "TGI", "setting": "MDA-MB-231 breast", "value": "> 25000", "unit": "nM"}, {"measurement": "TGI", "setting": "SK-MEL-5 melanoma", "value": "123 nM and 41.2 nM"}, {"measurement": "GI50", "setting": "HOP-62 NSCLC", "value": 2.5, "unit": "nM"}, {"measurement": "TGI", "setting": "HOP-62 NSCLC", "value": "6.98 nM and 6.25 nM"}, {"measurement": "GI50", "setting": "HS 578T breast", "value": 292, "unit": "nM"}, {"measurement": "TGI", "setting": "HS 578T breast", "value": "8350 nM and 1350 nM"}, {"measurement": "GI50", "setting": "NCI-H226 lung", "value": 2.5, "unit": "nM"}, {"measurement": "TGI", "setting": "K-562 leukemia", "value": "233 nM and 605 nM"}, {"measurement": "TGI", "setting": "OVCAR-3 ovarian", "value": "> 25000", "unit": "nM"}, {"measurement": "TGI", "setting": "NCI/ADR-RES ovarian", "value": 440, "unit": "nM"}, {"measurement": "GI50", "setting": "786-0 renal", "value": 4.35, "unit": "nM"}, {"measurement": "TGI", "setting": "786-0 renal", "value": "106 nM and 262 nM"}, {"measurement": "GI50", "setting": "UACC-257 melanoma", "value": 7.94, "unit": "nM"}, {"measurement": "TGI", "setting": "UACC-257 melanoma", "value": "204 nM and 286 nM"}, {"measurement": "GI50", "setting": "OVCAR-8 ovarian", "value": 4.68, "unit": "nM"}, {"measurement": "TGI", "setting": "OVCAR-8 ovarian", "value": "124 nM and 258 nM"}, {"measurement": "TGI", "setting": "A549 NSCLC", "value": 820, "unit": "nM"}, {"measurement": "GI50", "setting": "SF-295 CNS", "value": 2.5, "unit": "nM"}, {"measurement": "TGI", "setting": "SF-295 CNS", "value": 54.2, "unit": "nM"}, {"measurement": "TGI", "setting": "HOP-92 NSCLC", "value": 336, "unit": "nM"}, {"measurement": "TGI", "setting": "HCC-2998 colon", "value": 59.5, "unit": "nM"}, {"measurement": "TGI", "setting": "OVCAR-5 ovarian", "value": 679, "unit": "nM"}, {"measurement": "GI50", "setting": "LOX IMVI melanoma", "value": 2.5, "unit": "nM"}, {"measurement": "TGI", "setting": "LOX IMVI melanoma", "value": "180 nM and 326 nM"}, {"measurement": "GI50", "setting": "SNB-75 CNS", "value": 6.2, "unit": "nM"}, {"measurement": "TGI", "setting": "SNB-75 CNS", "value": "80.4 nM and 71.9 nM"}, {"measurement": "GI50", "setting": "SN12C renal", "value": 2.5, "unit": "nM"}, {"measurement": "TGI", "setting": "SN12C renal", "value": "28.8 nM and 20.1 nM"}, {"measurement": "GI50", "setting": "SF-539 CNS", "value": "< 1", "unit": "nM"}, {"measurement": "TGI", "setting": "SF-539 CNS", "value": "21.9 nM and 28.1 nM"}, {"measurement": "TGI", "setting": "MDA-N", "value": 260, "unit": "nM"}, {"measurement": "GI50", "setting": "RXF 393 renal", "value": 37.3, "unit": "nM"}, {"measurement": "TGI", "setting": "RXF 393 renal", "value": "68.4 nM and 242 nM"}, {"measurement": "GI50", "setting": "HT29 colon", "value": 25.3, "unit": "nM"}, {"measurement": "TGI", "setting": "HT29 colon", "value": "> 25000", "unit": "nM"}]}
